Source: US9776972B2, “Pyrazole derivatives as arginine methyltransferase inhibitors and uses thereof” (priority 2013, dated 2017)

Target: T1, human PRMT1 (Homo sapiens, UniProt Q99873)
T1 construct: GST-tagged PRMT1; made in house; host or cells: High Five insect cells (baculovirus)
Experiment: PRMT1 Biochemical Assay (3H-SAM Flashplate, peptide substrate)
Details: single experiment or average of multiple experiments
Method in brief: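 GST-tagged PRMT1 from baculovirus-infected cells, preincubated with compounds 30 min at room temperature in 20 mM Bicine pH 7.6, 1 mM TCEP, 0.005% BSG, 0.002% Tween 20. Reaction started with ³H-SAM plus biotinylated peptide, stopped with 300 µM cold SAM.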

T1 sequence (Q99873 with tags, fused parts or gaps): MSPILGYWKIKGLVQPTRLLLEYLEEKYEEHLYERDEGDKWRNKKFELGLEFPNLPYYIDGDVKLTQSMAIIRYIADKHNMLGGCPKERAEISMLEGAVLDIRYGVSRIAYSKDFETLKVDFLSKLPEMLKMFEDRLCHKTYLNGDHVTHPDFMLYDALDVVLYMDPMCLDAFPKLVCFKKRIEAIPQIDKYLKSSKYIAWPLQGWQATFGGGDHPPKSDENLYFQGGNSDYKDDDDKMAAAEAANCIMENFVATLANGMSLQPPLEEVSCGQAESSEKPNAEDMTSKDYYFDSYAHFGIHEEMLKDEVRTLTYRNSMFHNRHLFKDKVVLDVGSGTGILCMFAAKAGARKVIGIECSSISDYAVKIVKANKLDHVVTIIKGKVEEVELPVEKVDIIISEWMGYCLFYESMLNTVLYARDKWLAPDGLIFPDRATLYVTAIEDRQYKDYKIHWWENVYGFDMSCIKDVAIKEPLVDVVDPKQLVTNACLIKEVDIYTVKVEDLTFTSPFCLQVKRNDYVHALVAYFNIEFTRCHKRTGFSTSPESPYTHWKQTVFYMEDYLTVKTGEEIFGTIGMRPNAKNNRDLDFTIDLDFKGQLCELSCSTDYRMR

Row | IC50 [nM] | SMILES
1 | 8.56 | CNCCN(C)Cc1n[nH]cc1-c1cc(Cl)c(OC(C)C)c(Cl)c1 [Compound 273]
2 | 2.79 | CNCCN(C)Cc1n[nH]cc1-c1ccc(Oc2cccc(F)c2)cc1 [Compound 270]
3 | 23.9 | CNCCN(C)Cc1c[nH]nc1-c1cc(OC(C)C)cc(C(C)C)c1 [Compound 260]
4 | 3.43 | CNCCN(C)Cc1c[nH]nc1-c1ccc(Oc2cccc(OC)c2)cc1 [Compound 230]
5 | 156 | CNCCN(C)Cc1n[nH]cc1-c1cc(OC(C)C)cc(C(C)C)c1 [Compound 272]
6 | 38.2 | CNCCN(C)Cc1n[nH]cc1-c1ccc(Oc2ccccc2)c(C(=O)NC)c1 [Compound 240]
7 | 59.7 | CNCCN(C)Cc1c[nH]nc1-c1cc(C(C)C)cc(C(C)C)c1 [Compound 229, N^1-((3-(3,5-diisopropylphenyl)-1H-pyrazol-4-yl)methyl)-N^1,N^2-dimethylethane-1,2-diamine]
8 | 3.47 | CNCCN(C)Cc1n[nH]cc1-c1ccc(Oc2cccc(C#N)c2)cc1 [Compound 267]
9 | 2.51 | CNCCN(C)Cc1n[nH]cc1-c1ccc(Oc2cccc(OC)c2)cc1 [Compound 239]
10 | 2.06 | CNCCN(C)Cc1c[nH]nc1-c1ccc(Oc2ccccc2F)cc1 [Compound 237]
11 | 52.4 | CNCCN(C)Cc1n[nH]cc1-c1cc(CC(C)C)cc(CC(C)C)c1 [Compound 271]
12 | 5.63 | CNCCN(C)Cc1c[nH]nc1-c1ccc(Oc2cccc(C(C)C)c2)cc1 [Compound 262]
13 | 1540 | CCCN(CCN)Cc1c[nH]nc1-c1ccc(F)cc1 [Compound 63]
14 | 52.2 | CNCCN(C)Cc1n[nH]cc1-c1ccc(Oc2ccccc2)c(C(=O)N(C)C)c1 [Compound 241]
15 | 2.21 | CNCCN(C)Cc1c[nH]nc1-c1cc(Cl)c(OCC2CC2)c(Cl)c1 [Compound 282]
16 | 19.3 | CNCCN(C)Cc1c[nH]nc1-c1ccc(Oc2ccccc2C(=O)NC)cc1 [Compound 274]
17 | 8.63 | CNCCN(C)Cc1n[nH]c(C)c1-c1ccc(OC(C)C)cc1 [Compound 275]
18 | 1.32 | CN(CCN)Cc1c[nH]nc1-c1ccc(Oc2ccccc2F)cc1 [Compound 259]

Row | IC50 [nM] | SMILES
19 | 8.35 | CC(C)Cc1cccc(-c2n[nH]cc2CN(C)CCN)c1 [Compound 235]
20 | 11.2 | CNCCN(C)Cc1c[nH]nc1-c1cc(CC(C)C)cc(CC(C)C)c1 [Compound 281]
21 | 2.94 | CNCCN(C)Cc1c[nH]nc1-c1ccc(Oc2cccc(C#N)c2)cc1 [Compound 261]
22 | 376 | CNCCN(C)Cc1n[nH]cc1-c1cc(C(C)C)cc(C(C)C)c1 [Compound 242]
23 | 4.58 | CNCCN(C)Cc1n[nH]cc1-c1ccc(Oc2cccc(C(=O)NC)c2)cc1 [Compound 268]
24 | 5.67 | CNCCN(C)Cc1c[nH]nc1-c1cc(Cl)c(OC(C)C)c(Cl)c1 [Compound 265, N^1-((3-(3,5-dichloro-4-isopropoxyphenyl)-1H-pyrazol-4-yl)methyl)-N^1,N^2-dimethylethane-1,2-diamine]
25 | 4.3 | CC(C)Cc1cc(-c2n[nH]cc2CN(C)CCN)ccc1F [Compound 280]
26 | 9.17 | CNCCN(C)Cc1c[nH]nc1-c1ccc(OCCCO)cc1 [Compound 236]
27 | > 1000 | CNCCN(C)Cc1c(-c2ccc(OCCCOC)cc2)cnn1C [Compound 276]
28 | 20.2 | CNCCN(C)Cc1n[nH]cc1-c1ccc(Oc2cccc(C(C)C)c2)cc1 [Compound 277]
29 | 29.3 | CNCCN(C)Cc1c[nH]nc1-c1ccc(Oc2ccccc2)c(C(=O)N(C)C)c1 [Compound 233]
30 | 4.08 | CNCCN(C)Cc1c[nH]nc1-c1ccc(Oc2cccc(F)c2)cc1 [Compound 231]
31 | 135 | C=C(C)C(=O)Nc1cccc(-c2[nH]ncc2CN(C)CCNC)c1 [Compound 257]
32 | 3.46 | CNCCN(C)Cc1n[nH]cc1-c1ccc(Oc2ccccc2F)cc1 [Compound 279, N^1-((4-(4-(2-fluorophenoxy)phenyl)-1H-pyrazol-3-yl)methyl)-N^1,N^2-dimethylethane-1,2-diamine]
33 | 176 | CNCCN(C)Cc1nn(C)cc1-c1ccc(OCCCOC)cc1 [Compound 266]
34 | 25 | CNCCN(C)Cc1c[nH]nc1-c1ccc(Oc2ccccc2)c(C(=O)NC)c1 [Compound 232]
35 | 35.3 | CNCCN(C)Cc1cn(Cc2ccncc2)nc1-c1ccc(OC(C)C)cc1 [Compound 245]

Row | SMILES | IC50 [nM]
36 | CNCCN(C)Cc1c[nH]nc1-c1ccc(F)cc1 [Compound 2, N^1-((3-(4-fluorophenyl)-1H-pyrazol-4-yl)methyl)-N^1,N^2-dimethylethane-1,2-diamine] | 57.6
37 | CNCCN(C)Cc1c[nH]nc1-c1ccccc1-c1ccccc1 [Compound 46] | 2500
38 | CNCCN(C)Cc1cn(CC(=O)O)nc1-c1ccc(OC(C)C)cc1 [Compound 250] | 737
39 | CNCCN(C)Cc1c[nH]nc1-c1ccccc1C(F)(F)F [Compound 38] | 1830
40 | CNCCN(C)Cc1c[nH]nc1-c1c(OC)cccc1OC [Compound 56] | 5850
